Results taken from patent US10934255B2, “Nrf and HIF activators/HDAC inhibitors and therapeutic methods using the same” (THE BOARD OF TRUSTEES OF THE UNIVERSITY OF ILLINOIS, priority 2017, dated 2021).
Where two headings read alike, the source gives them in different places.

Molecular target: T1, Human HDAC6 (Homo sapiens, UniProt Q9UBN7)
T1 construct: Full length with N-terminal GST tag, MW=159 kDa; GST (N); host or cells: Sf9 insect cells (baculovirus)
T1 sequence (Q9UBN7 1-1215): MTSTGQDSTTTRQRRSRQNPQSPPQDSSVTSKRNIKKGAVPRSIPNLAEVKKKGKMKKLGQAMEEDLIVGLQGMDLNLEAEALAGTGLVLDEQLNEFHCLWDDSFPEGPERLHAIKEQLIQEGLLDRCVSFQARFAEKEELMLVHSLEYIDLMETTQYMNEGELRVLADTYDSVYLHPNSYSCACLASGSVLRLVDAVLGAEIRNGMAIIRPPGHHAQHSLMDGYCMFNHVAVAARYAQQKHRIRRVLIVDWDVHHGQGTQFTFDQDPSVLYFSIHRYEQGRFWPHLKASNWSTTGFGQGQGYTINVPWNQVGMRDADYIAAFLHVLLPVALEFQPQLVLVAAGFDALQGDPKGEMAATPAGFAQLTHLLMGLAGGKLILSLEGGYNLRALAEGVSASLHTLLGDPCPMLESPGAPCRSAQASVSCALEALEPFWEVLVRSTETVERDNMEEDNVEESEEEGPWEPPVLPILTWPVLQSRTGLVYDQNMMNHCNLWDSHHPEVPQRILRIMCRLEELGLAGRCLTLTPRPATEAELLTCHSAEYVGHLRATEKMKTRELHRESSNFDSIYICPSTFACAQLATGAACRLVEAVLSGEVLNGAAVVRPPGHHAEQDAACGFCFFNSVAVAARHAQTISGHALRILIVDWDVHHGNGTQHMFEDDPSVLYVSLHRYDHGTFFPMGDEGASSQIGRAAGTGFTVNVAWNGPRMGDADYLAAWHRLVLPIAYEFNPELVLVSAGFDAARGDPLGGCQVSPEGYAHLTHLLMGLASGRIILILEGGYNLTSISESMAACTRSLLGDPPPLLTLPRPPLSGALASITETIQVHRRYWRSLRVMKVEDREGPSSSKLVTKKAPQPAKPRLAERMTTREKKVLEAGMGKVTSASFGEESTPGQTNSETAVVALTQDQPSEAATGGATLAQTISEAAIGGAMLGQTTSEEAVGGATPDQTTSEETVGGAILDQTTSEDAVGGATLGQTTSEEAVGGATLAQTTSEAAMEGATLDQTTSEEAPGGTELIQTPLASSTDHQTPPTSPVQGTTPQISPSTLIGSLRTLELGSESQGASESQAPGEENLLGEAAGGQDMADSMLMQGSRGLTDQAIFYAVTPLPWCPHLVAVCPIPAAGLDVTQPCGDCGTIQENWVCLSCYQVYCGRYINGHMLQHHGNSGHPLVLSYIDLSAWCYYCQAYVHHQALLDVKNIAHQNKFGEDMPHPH
Assay: HDAC6 inhibition assay (fluorogenic p53 peptide substrate)
Assay type: biochemical
Procedure: The HDAC1, 2, 4, 5, 6, 7, 8, 9, 10, and 11 assays used isolated recombinant human protein; HDAC3/NcoR2 complex was used for the HDAC3 assay. Substrate for HDAC1, 2, 3, 6, 10, and 11 assays is a fluorogenic peptide from p53 residues 379-382 (RHKKAc); substrate for HDAC8 is fluorogenic diacyl peptide based on residues 379-382 of p53 (RHKAcKAc). Acetyl-Lys(trifluoroacetyl)-AMC substrate was used for HDAC4, 5, 7, and 9 assays. Compounds were dissolved in DMSO and tested in 10-dose IC50 mode with 3-fold serial dilution starting at 30 μM. Control Compound Trichostatin A (TSA) was tested in a 10-dose IC50 with 3-fold serial dilution starting at 5 μM. IC50 values were extracted by curve-fitting the dose/response slopes. Assays were performed in duplicate and IC50 values are an average of data from both experiments.
Human HDAC6 (GenBank Accession No. BC069243): Full length with N-terminal GST tag, MW=159 kDa, expressed by baculovirus expression system in Sf9 cells. Enzyme is in 50 mM Tris-HCl, pH 8.0, 138 mM NaCl, 20 mM glutathione, and 10% glycerol, and stable for >6 months at −80° C. Purity is >90% by SDS-PAGE. Specific Activity is 50 U/μg, where one U=1 pmol/min under assay condition of 25 mM Tris/Cl, pH8.0, 137 mM NaCl, 2.7 mM KCl, 1 mM MgCl2, and 0.1 mg/ml BSA, 30 μM HDAC substrate, and 5 ng/μl HDAC6, incubation for 60 min at 30° C.
Substrate for HDAC1 and HDAC6: Acetylated peptide substrate for HDAC, based on residues 379-382 of p53 (Arg-His-Lys-Lys(Ac)), a site of regulatory acetylation by the p300 and CBP acetyltransferases (lysines 381, 382)1-6, is the best for HDAC from among a panel of substrates patterned on p53, histone H3 and histone H4 acetylation sites7.
Reaction Buffer: 50 mM Tris-HCl, pH 8.0, 137 mM NaCl, 2.7 mM KCl, 1 mM MgCl2, 1 mg/ml BSA.
HDAC6: 12.6 nM HDAC6 and 50 μM HDAC substrate are in the reaction buffer and 1% DMSO final. Incubate for 2 hours at 30° C.
All IC50 values are automatically calculated using the GraphPad Prism version 5 and Equation of Sigmoidal dose-response (variable slope): Y=Bottom+(Top−Bottom)/(1+10^((Log EC50−X)*HillSlope)), where X is the logarithm of concentration, Y is the response, Y starts at Bottom and goes to Top with a sigmoid shape. In most cases, “Bottom” is set 0, and “Top” is set “less than 120%”. This is identical to the “four parameter logistic equation”. IC50 curves also are drawn using the GraphPad Prism, and IC50 values and Hill slopes are provided.
HDAC Activity Assays: HDAC assay is performed using fluorescently-labeled acetylated substrate, which comprises an acetylated lysine side chain. After incubation with HDAC, deacetylation of the substrate sensitizes the substrate such that, in a second step, treatment with the detection enzyme produces a fluorophore. HDACs 1 and 6 were expressed as full length fusion proteins. Purified proteins were incubated with 50 μM fluorescently-labeled acetylated peptide substrate and test compound for 2 hours at RT in HDAC assay buffer containing 50 mM Tris-HCl (pH 8.0), 137 mM NaCl, 2.7 mM KCl, 1 mM MgCl2, 1% DMSO, and 1% BSA.
Reactions were terminated by the addition of the Developer after 2 hours, and the development of fluorescence signal, which was relative to the amount of deacetylated peptide, was monitored by time-course measurement of EnVision (PerkinElmer). The HDAC activity was estimated from the slope of time-course measurement of the fluorescence intensity. The slope of no-enzyme control (substrate alone) was served as background, and % Enzyme activity was calculated using background-subtracted slope of no inhibitor control (DMSO) as 100% activity.

[1] = Table 1, performed by Reaction Biology Corporation, read-out: HDAC isoform IC50 (nM) 6
[2] = Table 2 isoform selectivity, read-out: HDAC Inhibition (IC50 uM) isoform 6

IC50 [1] | Structure (SMILES) | IC50 [2]
11 nM | Cn1c(NCc2ccc(C(=O)NO)cc2)nc2ccccc21 [II-ING-13, N-Hydroxy-4-(((1-methyl-1H-benzo[d]imidazol-2-yl)amino)methyl)benzamide] | 9 nM
21.5 nM | O=C(NO)c1ccc(CN2CCc3cc(Cl)ccc32)cc1 [II-ING-39, 4-((5-Chloroindolin-1-yl)methyl)-N-hydroxybenzamide] | 
13.1 nM | O=C(NO)c1ccc(CN2CCc3cc(F)ccc32)cc1 [II-ING-42, 4-((5-Fluoroindolin-1-yl)methyl)-N-hydroxybenzamide] | 
26.8 nM | O=C(NO)c1ccc(CN2CCc3ccccc32)cc1 [II-ING-44, N-Hydroxy-4-(indolin-1-ylmethyl)benzamide] | 
11.5 nM | COc1ccc2c(c1)CCN2Cc1ccc(C(=O)NO)cc1 [II-ING-49, N-Hydroxy-4-((5-methoxyindolin-1-yl)methyl)benzamide] | 

The remaining lines, values behind:

Structure (SMILES) | IC50 [1] | IC50 [2]
O=C(NO)c1ccc(CN2CCc3ccc(Cl)cc32)cc1 [II-ING-6, 4-((6-Chloroindolin-1-yl)methyl)-N-hydroxybenzamide] | 11.5 nM | 9 nM
O=C(NO)c1ccc(CN2CCc3ccc(F)cc32)cc1 [II-ING-41, 4-((6-Fluoroindolin-1-yl)methyl)-N-hydroxybenzamide] | 16.7 nM | 4 nM
O=C(NO)c1ccc(CN2C(=O)C(F)(F)c3ccccc32)cc1 [II-ING-66, 4-((3,3-Difluoro-2-oxoindolin-1-yl)methyl)-N-hydroxybenzamide] | 4.1 nM | 
